From patent US20130101582A1, “Tiki1 and Tiki2, Wnt Inhibitors” (CHILDREN'S MEDICAL CENTER CORPORATION, priority 2010, published 2013)

Columns and labels:
nuclear beta-catenin = assay: Wnt-induced nuclear beta-catenin accumulation in Xwnt8-responding animal cap cells; format: in vivo, Xenopus; conditions: stage 9 animal cap cells neighbouring Xwnt8-expressing cells; 200 pg mRNA
Experimental: FIGS. 7A-C are each schematics with accompanying bar graphs showing that Tiki1 inhibits Wnt/β-catenin signaling in both Wnt-producing and Wnt-responding cells. 7A, Tiki1 acts in Xwnt8-producing cells. Xwnt8 mRNA (20 pg) was co-injected with Tiki1 or LDLR mRNA (100 pg) into a single blastomere at the 8-cell stage, while S01234-Luciferase (140 pg) plus TK-Renilla (1.25 pg) reporter DNAs were injected into a neighboring blastomere. 7B, Tiki1 acts in Xwnt8-responding cells. S01234-Luciferase and TK-Renilla reporter DNAs were co-injected with Tiki1 or LDLR mRNA in a single blastomere, while Xwnt8 mRNA was injected into a neighboring blastomere. Luciferase readings were normalized to Renilla. 7C, Tiki1 reduces nuclear beta-catenin levels in Xwnt8-responding cells. […] Only cells within the distance of five cell bodies from Xwnt8-expressing cells were counted in any given field. […]
Secondly Wnt-induced nuclear beta-catenin accumulation was monitored. […] In confocal microscopy Xwnt8-expressing cells were traced by RFP (red), whereas Wnt-responding cells that expressed Tiki1 or LDLR were traced by FLD (green), and naive cells descended from uninjected blastomeres lacked green or red fluorescence. […]

[1] = system: Super-TOPFLASH (STF) luciferase reporter; assay: Super-TOPFLASH (STF) luciferase reporter induction in STF cells; format: cell-based; conditions: 6-hour treatment; not shown
Experimental: A high throughput screen (HTS) is used to identify compounds that enhance LRP5/6 signaling as potential therapeutics for osteoporosis or cellular proliferative disorders. We employ a Wnt responsive cell line carrying a Super-TOPFLASH (STF) luciferase reporter (Wnt-responsive) (Major et al. Science. 2007. 316:1043-6). These STF cells grow as an adherent monolayer making them ideally suited for 384-well-plate screening format. […] Different conditions are tested and an acceptable z′ score of 0.5 or above (z′ measures HTS quality and reproducibility (Zhang et al. J Biomol Screen. 1999. 4:67-73)) is achieved.

Molecule	Cells displaying nuclear beta-catenin (nuclear beta-catenin) [%]	Induction of the STF reporter [1]
LDLR: negative control, expressed from injected LDLR mRNA	80	
Wnt3a: Wnt ligand added to STF reporter cells (protein) SYPIWWSLAVGPQYSSLGSQPILCASIPGLVPKQLRFCRNYVEIMPSVAEGIKIGIQECQHQFRGRRWNCTTVHDSLAIFGPVLDKATRESAFVHAIASAGVAFAVTRSCAEGTAAICGCSSRHQGSPGKGWKWGGCSEDIEFGGMVSREFADARENRPDARSAMNRHNNEAGRQAIASHMHLKCKCHGLSGSCEVKTCWWSQPDFRAIGDFLKDKYDSASEMVVEKHRESRGWVETLRPRYTYFKVPTERDLVYYEASPNFCEPNPETGSFGTRDRTCNVSSHGIDGCDLLCCGRGHNARAERRREKCRCVFHWCCYVSCQECTRVYDVHTCK		30-40 folds
